Measured values from patent US20090029982A1, “PROTEIN KINASE INHIBITORS” (SUPERGEN, INC., priority 2005, published 2009).

Assays:
[1] = system: HT-29 human colon cancer cells; test: HT-29 xenograft study in mice; format: in vivo; settings: 25 mg/kg intraperitoneally, q.d.×5 for two weeks
Protocol: In order to evaluate the effectiveness of MP277 against tumor cells in a living system, a xenograft study was performed in mice. 1×10^7 HT-29 human colon cancer cells were injected subcutaneously into 16 Nu/Nu athymic nude mice (Charles River Laboratories, Wilmington, Mass.). Tumor volume was measured according to the formula ((Width)^2*Length)/2. Tumors were allowed to grow to approximately 100 mm^3 in volume (Day 0), at which point mice were randomized to two groups: Eight mice were treated with 25 mg/kg MP277, while the other eight were given an equal volume of drug vehicle. For this study, the drug vehicle used was 60% propylene glycol, 30% polyethylene glycol 300, 10% ethanol with 150 mg/mL 2-hydroxypropyl-beta-cyclodextrin. Each mouse received 0.1 mL of drug or vehicle intraperitoneally on a q.d.×5 schedule for two weeks, with two days rest between cycles.

[2] = biological target: T1, recombinant aurora-2 kinase (Homo sapiens, UniProt O14965); test: aurora-2 kinase inhibition assay (Kinase-Glo, ATP remaining); format: biochemical; settings: Example 20, Table 2; 3 μM ATP, 62.5 μM Kemptide, 30° C., two hours; read-out: IC50 A2K
T1 construct: purchased Upstate, Lake Placid, N.Y; host or cells: sf9 cells
T1 sequence (O14965 1-403): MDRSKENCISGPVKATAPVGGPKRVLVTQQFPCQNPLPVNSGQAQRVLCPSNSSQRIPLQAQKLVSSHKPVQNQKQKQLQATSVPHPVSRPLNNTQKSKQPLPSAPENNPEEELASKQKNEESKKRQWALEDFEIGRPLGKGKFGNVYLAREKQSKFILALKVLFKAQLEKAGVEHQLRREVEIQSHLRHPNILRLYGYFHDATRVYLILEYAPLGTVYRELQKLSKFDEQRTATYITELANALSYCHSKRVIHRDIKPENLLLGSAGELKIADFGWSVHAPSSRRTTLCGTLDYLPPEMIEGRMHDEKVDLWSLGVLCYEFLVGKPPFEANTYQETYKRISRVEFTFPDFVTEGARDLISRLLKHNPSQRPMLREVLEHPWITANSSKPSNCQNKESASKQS
Protocol: In this assay kinase activity was determined by quantifying the amount of ATP remaining in solution following a kinase reaction by measuring the light units (LU) produced by luciferase using a luminometer. Percent inhibition was determined for individual compounds by comparing luminometer readings of drug-treated reactions to controls containing no drug (DMSO control) and no Aurora-2 enzyme (ATP control) in the following equation: […]
In a 50 μl reaction, recombinant aurora-2 kinase produced in sf9 cells (Upstate, Lake Placid, N.Y.) was incubated at 30° C. for two hours with 62.5 μM Kemptide (Calbiochem, San Diego, Calif.), 3 μM ATP (Invitrogen, Carlsbad, Calif.) and kinase reaction buffer (40 mM Tris-HCl, 10 mM MgCl2 and 0.1 μg/μl bovine serum albumin (BSA)). This reaction was carried out in the presence of drug substances, which had been previously diluted to desired concentrations in DMSO. […] Kinase activity is determined by quantifying the amount of ATP remaining in solution following the kinase reaction by measuring the light units (LU) produced by luciferase using a luminometer (Thermo-Electron, Vantaa, Finland).
Briefly, kinase activity was determined by quantifying the amount of ATP remaining in solution following a kinase reaction by measuring the light units (LU) produced by luciferase using a luminometer. […]

IC50 [2] [nM] | Structure (SMILES) | toxicity noted through the duration of the study ([1]; nude mice) | inhibition of tumor growth in vivo ([1]; subcutaneous HT-29 xenograft, FIG. 1)
 | CC(=O)NS(=O)(=O)c1ccc(NC(=S)N2CCN(c3ncnc4[nH]c5cc(C(F)(F)F)c(Cl)cc5c34)CC2)cc1 [Compound 1, 4-(6-Chloro-7-trifluoromethyl-9H-pyrimido[4,5-b]indol-4-yl)-piperazine-1-carbothioic acid (4-acetylsulfamoyl-phenyl)-amide] | No noticeable toxicity | effective for inhibiting tumor growth in vivo
5 | COc1cc2[nH]c3ncnc(N4CCN(C(=S)Nc5ccc(S(=O)(=O)NC(C)=O)cc5)CC4)c3c2cc1OC [Compound 2] |  | 
